Tests used:
[1] = TH-2-31 IP PK Study, 40 mg/kg; assay type: in vivo, C57BL/6 mice; conditions: 40 mg/kg IP, up to eight hours
Experimental: C57BL/6 mice (8-weeks of age and ˜25 g weight) were weighed before injection and divided into groups of 2 male and female mice per cage. TH-2-31 was dissolved in 5% DMSO/95% of 65% v/v of 25% w/v 2-hydroxypropyl-3-cyclodextrin (Cayman Chemical) dissolved in 20% EtOH, 30% v/v Poly(ethylene glycol)-400 (Sigma Aldrich 202398), 5% v/v Tween 80 (Fluka 59924) to create a 4 mg/mL solution. The same formulation without TH-2-31 was used as a vehicle control. The solution was sterilized using a […] Steriflip filter unit (Thomas Scientific 1189Q46). Mice were dosed IP and euthanized by CO2 asphyxiation for 3 min at 0, 1, 2, 4, and 8 h after administration. To ensure that the vehicle was well-tolerated 4 mice were treated with vehicle and euthanized 4 h after administration. ˜0.5 mL of blood was collected via cardiac puncture and immediately put in K3 EDTA microtubes ([…] 41.1504.105) and kept on ice. Organs were harvested, placed in Eppendorf tubes, and frozen on dry ice. Blood samples were centrifuged for 10 min at 2,100×g at 4° C., then plasma was transferred to a clean tube and frozen on dry ice. […] After drying, the samples were resuspended in 100 μL of methanol and analyzed by UPLC-MS described below. The concentration of TH-2-31 was determined against a standard curve with a linear fit and the data plot in GraphPad Prism 9 and fit with a one phase decay. […]

[2] = Microsomal stability, dog (Table 1); assay type: in vitro ADME; conditions: Dog: Beagle
Experimental: Each compound (1 μM) is incubated with mouse plasma, for 4 hours at 37° C., with shaking at 100 rpm. The concentration of compound in the buffer and plasma chambers is determined using LC-MS/MS. Metabolism of each compound is predicted using Sites of Metabolism (Schrodinger Suite), which combines intrinsic reactivity analysis (Hammett-Taft) with induced fit docking against 2C9, 2D6 and 3A4. This approach identifies 90% of known metabolism sites and has a false positive rate of 17%. The in vitro metabolic stability of each compound in mouse liver microsomes is determined. Pooled mouse liver microsomes are prepared and stored at −80° C. until needed. Compound stability in liver microsomes is measured at 0, 15, 30, 45 and 60 minutes in duplicate, using LC-MS/MS analysis.

HT-1080 cells = experiment: Rescue activity of selected Fer-1 analogs, dose-response in HT-1080 cells (cell titer glo); assay type: cell-based
Experimental: Selected Fer-1 analogs containing a pyridine moiety (FIG. 4) were tested to examine their efficacy and overall potency in inhibiting ferroptosis. For each of these compounds, dose-response curves were generated in HT-1080 cells looking at the effectiveness of the molecules in inhibiting ferroptosis induced by either 3 μM IKE or 0.2 μM RSL3, Fer-1 was used as a positive control. For each dose-response curve, 1,000 cells/well were seeded in a 384 well plate and allowed to adhere overnight prior to treating with compound from a daughter plate. Cells were treated for 48 hours, unless otherwise noted, prior to viability being analyzed using cell titer glo (40 μL per well). All liquid handling was performed using the BioMek. All samples were prepared in triplicate, unless otherwise noted.

| SMILES | accumulation in plasma and brain, in words [1] | Microsomal Stability, % remaining t = 120 [2] [%] | death observed with RSL3 (HT-1080 cells; 0.2 μM RSL3, inhibitor range 10 μM-0 μM) | rescue against IKE and erastin (HT-1080 cells; inhibitor 1 μM-0 μM, 3 μM IKE, 10 μM erastin, 48 hours) [%] |
| --- | --- | --- | --- | --- |
| Cc1noc(-c2cnc(NC3CCCCC3)c(NC3CCCCC3)c2)n1 [TH-2-31, N^2,N^3-dicyclohexyl-5-(3-methyl-1,2,4-oxadiazol-5-yl)pyridine-2,3-diamine] | stably accumulate at micromolar concentrations in plasma and brain even eight hours after |  |  |  |
| CCOC(=O)c1ccc(NC2CCCCC2)c(N)c1 [Fer-1, Ferrostatin-1, reference compound] |  | 49.5 ± 9.6 | No death was observed | ~50 |

Source: patent US20240156790A1, “COMPOUNDS, COMPOSITIONS, AND METHODS FOR MODULATING FERROPTOSIS AND TREATING EXCITOTOXIC DISORDERS” (THE TRUSTEES OF COLUMBIA UNIVERSITY IN THE CITY OF NEW YORK, priority 2018, published 2024)
